Molecular target: T1, recombinant human JAK1 kinase domain protein (Residues 854-1154) (Homo sapiens, UniProt P23458)
T1 construct: human JAK1 kinase domain protein (Residues 854-1154); purchased Proteros Biostructures GmbH (Martinsried, Germany); host or cells: insect cells
Assay: JAK1 biochemical assay (microfluidic mobility shift, peptide phosphorylation)
Details: 25 μM ATP, 1 nM total JAK1; Ki calculated from Ki app (tight-binding, competitive); read-out: Biochem JAK1 Ki
How it was run: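 Insect-cell-expressed human JAK1 (1 nM, residues 854-1154) or JAK2 (0.2 nM, residues 812-1132) phosphorylating 1.5 μM 5-FAM peptide Y-1B with 25 μM ATP, pH 7.2 HEPES, 30 min at 22-23 °C; twelve concentrations up to 1000 nM in duplicate. Mobility-shift % conversion fitted to tight-binding quadratic for Ki^app.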

T1 sequence (P23458 854-1154): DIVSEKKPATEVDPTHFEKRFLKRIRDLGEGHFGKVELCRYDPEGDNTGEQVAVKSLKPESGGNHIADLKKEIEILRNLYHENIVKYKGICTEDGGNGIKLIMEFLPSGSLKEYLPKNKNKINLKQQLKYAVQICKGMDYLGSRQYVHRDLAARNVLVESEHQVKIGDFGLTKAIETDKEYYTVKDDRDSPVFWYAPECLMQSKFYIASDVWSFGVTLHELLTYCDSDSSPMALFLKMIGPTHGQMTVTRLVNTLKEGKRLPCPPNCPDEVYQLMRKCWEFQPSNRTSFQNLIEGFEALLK

Row | Structure (SMILES) | Ki
1 | CN(CCN1CC(n2nnc(Cn3cc(NC(=O)c4cnn5cccnc45)c(-c4cc(OC(F)F)ccc4OC(F)F)n3)n2)C1)C(=O)OC(C)(C)C [Example 31, tert-butyl N-[2-[3-[5-[[3-[2,5-bis(difluoromethoxy)phenyl]-4-(pyrazolo[1,5-a]pyrimidine-3-carbonylamino)pyrazol-1-yl]methyl]tetrazol-2-yl]azetidin-1-yl]ethyl]-N-methyl-carbamate] | 0.34 nM
2 | CN(C)CCN1CC(n2nnc(Cn3cc(NC(=O)c4cnn5cccnc45)c(-c4cc(Cl)ccc4OC(F)F)n3)n2)C1 [Example 37, N-[3-[5-chloro-2-(difluoromethoxy)phenyl]-1-[[2-[1-[2-(dimethylamino)ethyl]azetidin-3-yl]tetrazol-5-yl]methyl]pyrazol-4-yl]pyrazolo[1,5-a]pyrimidine-3-carboxamide] | 0.48 nM
3 | CN1CCC(N2CC(n3nnc(Cn4cc(NC(=O)c5cnn6cccnc56)c(-c5cc(OC(F)F)ccc5OC(F)F)n4)n3)C2)CC1 [Example 38, N-[3-[2,5-bis(difluoromethoxy)phenyl]-1-[[2-[1-(1-methyl-4-piperidyl)azetidin-3-yl]tetrazol-5-yl]methyl]pyrazol-4-yl]pyrazolo[1,5-a]pyrimidine-3-carboxamide] | 0.48 nM
4 | CSc1ccc(OC(F)F)c(-c2nn(Cc3nnn(C4CN(CCCN(C)C)C4)n3)cc2NC(=O)c2cnn3cccnc23)c1 [Example 58, N-[3-[2-(difluoromethoxy)-5-methylsulfanyl-phenyl]-1-[[2-[1-[3-(dimethylamino)propyl]azetidin-3-yl]tetrazol-5-yl]methyl]pyrazol-4-yl]pyrazolo[1,5-a]pyrimidine-3-carboxamide] | 0.41 nM
5 | CN(C)CCN1CCC(n2nnc(Cn3cc(NC(=O)c4cnn5cccnc45)c(-c4cc(OC(F)F)ccc4OC(F)F)n3)n2)CC1 [Example 61, N-[3-[2,5-bis(difluoromethoxy)phenyl]-1-[[2-[1-[2-(dimethylamino)ethyl]-4-piperidyl]tetrazol-5-yl]methyl]pyrazol-4-yl]pyrazolo[1,5-a]pyrimidine-3-carboxamide] | 0.63 nM
6 | CN(C)[C@H]1C[C@H](N2CC(n3nnc(Cn4cc(NC(=O)c5cnn6cccnc56)c(-c5cc(OC(F)F)ccc5OC(F)F)n4)n3)C2)C1 [Example 70, N-[3-[2,5-bis(difluoromethoxy)phenyl]-1-[[2-[1-[3-(dimethylamino)cyclobutyl]azetidin-3-yl]tetrazol-5-yl]methyl]pyrazol-4-yl]pyrazolo[1,5-a]pyrimidine-3-carboxamide] | 0.64 nM
7 | CN1CC(N2CC(n3nnc(Cn4cc(NC(=O)c5cnn6cccnc56)c(-c5cc(OC(F)F)ccc5OC(F)F)n4)n3)C2)C1 [Example 78, N-[3-[2,5-bis(difluoromethoxy)phenyl]-1-[[2-[1-(1-methylazetidin-3-yl)azetidin-3-yl]tetrazol-5-yl]methyl]pyrazol-4-yl]pyrazolo[1,5-a]pyrimidine-3-carboxamide; formic acid] | 0.44 nM
